Measured values published in publication PMC10178204, “Peptaibol Analogs Show Potent Antibacterial Activity against Multidrug Resistant Opportunistic Pathogens” (International Journal of Molecular Sciences, 2023).
Converted amounts (≈) assume the structure as drawn. “And” between values parts separate entries of the source, which are not always exact repeats. Equal values may be shown once. Non-standard residues stand in square brackets, D forms with d. Residues, ends and D or L forms follow the SMILES beside them. *: point of attachment. Leu(ol) = CC(C)C[C@H](N)CO; Octanoyl = CCCCCCCC(=O)*; Aib = CC(C)(N)C(=O)O

Tests used:
[1] = test system: Acinetobacter baumannii ATCC 17978
From the text: (§1) The antibacterial activity of the peptides was initially assessed on a panel of representative Gram-positive and Gram-negative organisms of high clinical relevance and commonly responsible for bacterial infections in both animals and humans. Bacillus subtilis ATCC 6633 (Bsu) was also included as a rod-shaped model Gram-positive organism. This first panel comprised: Enterococcus faecalis ATCC 29212 (Efa); Streptococcus pyogenes ATCC 12344 (Spy); and Staphylococcus aureus ATCC 25923 (Sau); Gram-negative: Escherichia coli CCUGT (Eco), Klebsiella pneumoniae ATCC 13833 (Kpn), Acinetobacter baumannii ATCC 17978 (Aba), and Pseudomonas aeruginosa ATCC 27853 (Pae) (Table 2). Both the minimum inhibitory concentration (MIC, Table 2) and the minimum bactericidal concentration (MBC, Table S1, Supporting Material) were determined.
(§2) The minimum inhibitory concentration (MIC) and the minimum bactericidal concentration (MBC) of the compounds were determined in triplicate using Mueller–Hinton broth (MHB). […] Therefore, we decided to dissolve all peptides in DMSO to a final concentration of 25 mg/mL, for consistency. The bacteria inoculum was 5 × 10^5 CFU/mL, as recommended by CLSI (Document M07-A10, 2015). […] Reference-type strains, including representatives of both Gram-positive bacteria (Bacillus subtilis ATCC 6633, Enterococcus faecalis ATCC 29212, Staphylococcus aureus ATCC 25923, the methicillin-resistant Staphylococcus aureus ATCC 43300 (MRSA), Streptococcus pyogenes ATCC 12344) and Gram-negative bacteria (Escherichia coli CCUGT, Klebsiella pneumoniae ATCC 13833, Pseudomonas aeruginosa ATCC 27853, and Acinetobacter baumannii ATCC 17978), were acquired from ATCC or CCUG culture collections. Other antibiotic-resistant clinical isolates were present in our collection at the University Teaching Hospital (Azienda Ospedaliero-Universitaria Senese ‘Santa Maria alle Scotte’) in Siena, Tuscany, Italy. Specifically, MDR carbapenem-hydrolyzing class D β-lactamase-producing Acinetobacter baumannii and metallo-β-lactamase-producing Pseudomonas aeruginosa were used in this study (Table 4).

[2] = test system: Staphylococcus aureus ATCC 25923; settings: MHB, 5 × 10^5 CFU/mL, 18 h, 35 °C, triplicate
From the text: as §1, §2

[3] = test system: Enterococcus faecalis ATCC 29212; settings: MHB, 5 × 10^5 CFU/mL, 18 h, 35 °C, triplicate
From the text: as §1, §2

[4] = test system: Bacillus subtilis ATCC 6633; settings: MHB, 5 × 10^5 CFU/mL, 18 h, 35 °C, triplicate
From the text: as §1, §2

[5] = test system: Klebsiella pneumoniae ATCC 13833; settings: MHB, 5 × 10^5 CFU/mL, 18 h, 35 °C, triplicate
From the text: as §1, §2

[6] = test system: Streptococcus pyogenes ATCC 12344; settings: MHB, 5 × 10^5 CFU/mL, 18 h, 35 °C, triplicate
From the text: as §1, §2

[7] = test system: Pseudomonas aeruginosa ATCC 27853; settings: MHB, 5 × 10^5 CFU/mL, 18 h, 35 °C, triplicate
From the text: as §1, §2

Escherichia coli CCUGT = settings: MHB, 5 × 10^5 CFU/mL, 18 h, 35 °C, triplicate
From the text: as §1, §2

[8] = test system: A. baumannii SI-648 (OXA-23, OXA-51-like); settings: MHB, 5 × 10^5 CFU/mL, 18 h, 35 °C, triplicate
Method: as §2

[9] = test system: S. aureus ATCC 43300 (MRSA); settings: MHB, 5 × 10^5 CFU/mL, 18 h, 35 °C, triplicate
Method: as §2

[10] = test system: P. aeruginosa 101/1477 (IMP-1); settings: MHB, 5 × 10^5 CFU/mL, 18 h, 35 °C, triplicate
Method: as §2

[11] = test system: A. baumannii SI-310 (OXA-24); settings: colistin-resistant isolate; MHB, 5 × 10^5 CFU/mL, 18 h, 35 °C, triplicate
Method: as §2

[12] = test system: P. aeruginosa VR-143/97 (VIM-1); settings: MHB, 5 × 10^5 CFU/mL, 18 h, 35 °C, triplicate
Method: as §2

[13] = test system: P. aeruginosa 506/99 (VIM-2); settings: MHB, 5 × 10^5 CFU/mL, 18 h, 35 °C, triplicate
Method: as §2

[14] = test system: P. aeruginosa VA-182/00 (VIM-2); settings: MHB, 5 × 10^5 CFU/mL, 18 h, 35 °C, triplicate
Method: as §2

[15] = test system: A. baumannii SI-12 (OXA-23); settings: MHB, 5 × 10^5 CFU/mL, 18 h, 35 °C, triplicate
Method: as §2

[16] = test system: blood agar plate (Columbia CNA Agar); experiment: Hemolysis on blood agar plate; settings: 35 ± 2 °C, 24 h
Method: Hemolysis zones were visually determined and measured. […] For two additional peptides (6 and 15), only a small hemolysis zone (diameter 4–5 mm) was visible, as compared to that of the positive control (Triton X-100, 13 mm).
Briefly, 2 μL of each peptide solution in DMSO (25 mg/mL), corresponding to 50 μg, was spotted on the surface of a blood agar plate (Columbia CNA Agar, Becton Dickinson Italia S.p.A., Florence, Italy). The plate was then incubated at 35 ± 2 °C for 24 h and visually inspected for the presence of hemolysis zones (see Figure S13, Supplementary Material). The experiment was performed in triplicate. Table 2 reports the average value of the diameter of hemolysis zones measured in each individual experiment. Triton X-100 was used as a positive control (diameter of the hemolysis zone: 13 mm), while DMSO was used as a negative control.
Figure S13. Implementation of the hemolysis test as described in Bechlars et al.. After spotting
2 µL (50 µg) of each compound at a random location on the blood agar plate and incubation at 35 ±
2 °C for 24 h, the plates were manually inspected for the presence of hemolysis zones. Triton X-100
and DMSO were used as the positive and negative controls, respectively. Results were interpreted
(1 picture or pasted object on this page, not shown here)

[17] = MHB, 5 × 10^5 CFU/mL, 18 h, 35 °C, triplicate

For “1-Oct-Aib-Gly-Leu-Aib-Lys-Lys-Leu-Aib-Lys-Ile-Leu-NH2 [Peptide 5b]”, the “MBC Aba” value [1, 17] was 32 µg/mL, the “MIC Aba” value [1, 17] was 4 µg/mL and the “MIC against A. baumannii, in molar units” value ([1]; corresponding to 2 and 8 μg/mL) was 1.8 to 7.2 µM. For the same molecule, the “MBC Sau” value [2] was 32 µg/mL, the “MIC Sau” value [2] was 8 µg/mL and the “MBC Efa” value [3] was 16 µg/mL. For the same molecule, the “MIC Efa” value [3] was 2 µg/mL, the “MBC Bsu” value [4] was 16 µg/mL and the “MIC Bsu” value [4] was 2 µg/mL. The “MBC Kpn” value [5] was 128 µg/mL, the “MIC Kpn” value [5] was 32 µg/mL and the “MBC Spy” value [6] was 32 µg/mL. For the same molecule, the “MIC Spy” value [6] was 2 µg/mL, the “MBC Pae” value [7] was 128 µg/mL and the “MIC Pae” value [7] was 16 µg/mL. The “MBC Eco” value (Escherichia coli CCUGT) was 128 µg/mL, the “MIC Eco” value (Escherichia coli CCUGT) was 32 µg/mL and the “MBC A. baumannii SI-648 (OXA-23, OXA-51-like)” value [8] was 4 µg/mL. The “MIC A. baumannii SI-648 (OXA-23, OXA-51-like)” value [8] was 4 μg/mL and 4/4 μg/mL, the “MBC S. aureus ATCC 43300 (MRSA)” value [9] was 2 µg/mL and the “MIC S. aureus ATCC 43300 (MRSA)” value [9] was 2 µg/mL. For the same molecule, the “MBC P. aeruginosa 101/1477 (IMP-1)” value [10] was 8 µg/mL, the “MIC P. aeruginosa 101/1477 (IMP-1)” value [10] was 8 µg/mL and the “MBC A. baumannii SI-310 (OXA-24)” value [11] was 4 µg/mL. For the same molecule, the “MIC A. baumannii SI-310 (OXA-24)” value [11] was 2 µg/mL, the “MBC P. aeruginosa VR-143/97 (VIM-1)” value [12] was 32 µg/mL and the “MIC P. aeruginosa VR-143/97 (VIM-1)” value [12] was 16 µg/mL and 8 µg/mL. The “MBC P. aeruginosa 506/99 (VIM-2)” value [13] was 32 µg/mL, the “MIC P. aeruginosa 506/99 (VIM-2)” value [13] was 8 µg/mL and the “MBC P. aeruginosa VA-182/00 (VIM-2)” value [14] was 32 µg/mL. The “MIC P. aeruginosa VA-182/00 (VIM-2)” value [14] was 8 µg/mL, the “MBC A. baumannii SI-12 (OXA-23)” value [15] was 8 µg/mL and the “MIC A. baumannii SI-12 (OXA-23)” value [15] was 4 µg/mL.

In the case of `CCCCCCCC(=O)NC(C)(C)C(=O)NCC(=O)N[C@@H](CC(C)C)C(=O)NC(C)(C)C(=O)N[C@@H](CCCCN)C(=O)NC(C)(C)C(=O)N[C@@H](CC(C)C)C(=O)NC(C)(C)C(=O)NCC(=O)N[C@H](C(=O)N[C@H](CO)CC(C)C)[C@@H](C)CC` [Peptide 6, 1-Oct-Aib-Gly-Leu-Aib-Lys-Aib-Leu-Aib-Gly-Ile-Lol] (Octanoyl-[Aib]GL[Aib]K[Aib]L[Aib]GI[Leu(ol)]), the “Hemolysis (class)” value ([16]; 50 μg peptide (2 μL of 25 mg/mL in DMSO) spotted on blood agar, visual, triplicate) is reported as “+”, the “Hemolysis (d, diameter of hemolysis zone)” value ([16]; 50 μg spotted on blood agar, average of triplicate) is reported as 4 mm and the “MIC Aba” value [1, 17] is reported as over 128 µg/mL. For the same molecule, the “MBC Sau” value [2] was 16 µg/mL (≈ 13.7 µM), the “MIC Sau” value [2] was 8 µg/mL (≈ 6.86 µM) and the “MBC Efa” value [3] was 8 µg/mL (≈ 6.86 µM). The “MIC Efa” value [3] was 8 µg/mL (≈ 6.86 µM), the “MBC Bsu” value [4] was 16 µg/mL (≈ 13.7 µM) and the “MIC Bsu” value [4] was 8 µg/mL (≈ 6.86 µM). For the same molecule, the “MIC Kpn” value [5] was over 128 µg/mL, the “MBC Spy” value [6] was 8 µg/mL (≈ 6.86 µM) and the “MIC Spy” value [6] was 8 µg/mL (≈ 6.86 µM). The “MIC Pae” value [7] was over 128 µg/mL, the “MIC Eco” value (Escherichia coli CCUGT) was over 128 µg/mL and the “MBC S. aureus ATCC 43300 (MRSA)” value [9] was 8 µg/mL (≈ 6.86 µM). For the same molecule, the “MIC S. aureus ATCC 43300 (MRSA)” value [9] was 4 µg/mL (≈ 3.43 µM).
